One data set concerns AKATON tumor. The experiment in a line: AKATON tumor prevention by MOC.melphalan. The settings on record: for Average tumor mass: control 4.46; for Average tumor volume: control 7.90. Type of data set: in vivo, mice. As for the experimental part: Mice of the Balb line received the substance MOC.melphalan in dosages of 2.5 mg/kg and 5 mg/kg in 0.3 ml of physiological solution by intravenous administration on four consecutive days (1× a day). On day 5, the AKATON tumor was implanted in the animals. The animals were sacrificed on day 21 of the investigation and underwent histological, morphological examination (table 16, FIG. 6).

Another data set deals with leukemia P-388. In words: Leukemia P-388 survival (original strain). The class given is in vivo, mice.
The subject of the next data set is leukemia L-1210. In words: Leukemia L-1210 survival. The class given is in vivo, mice. As for the experimental part: The therapeutic efficacy was investigated on the leukemia tumor strains L-1210, P-388, and P-388 strains specifically obtained for drug resistance. The lifespan of the animals was set at 60 days in this case. Drug-resistant tumor were obtained by successive transplantation of the leukemia P-388 with ascites cells taken from mice which had been treated with rubomycin (strain P388/ph), vincristine (P388/vcr) and zisplatin (P388/cPt).
Inoculum: 10^6 cells in 0.2 ml of physiological saline solution. Mice: BDF1, females 19-21 g. The products were administered intraabdominally.
After transplantation of the tumor, the substance MOC.melphalan was administered intraabdominally to the animals in a dosage of 5 mg/kg in 0.3 ml of 10% Twin-80 solution on days 1 to 7. The effect of the substance was assessed on the basis of the lifespan and the weight change of the animals (table 9). The observation period was 60 days.

The subject of data set [1] is drug-resistant leukemia P-388 tumors. As to conditions: rubomycin-, vincristine-, cisplatin-resistant P-388. An excerpt: The drug-resistant tumors were obtained by administration of ascites cells leukemia P-388 which were derived from mice treated with rubomycin, vincristine and cisplatin.
[2] abbreviates: 2.5 mg/kg i.v. four consecutive days before implantation.
[3] abbreviates: 5.0 mg/kg i.v. four consecutive days before implantation.

The structures appear in SMILES notation.

For `CC(=O)C=C(C)[O-].CC(=O)C=C(C)[O-].NC(Cc1ccc(N(CCCl)CCCl)cc1)C(=O)O.[Cu+2]` (stereo not drawn) [MOC.melphalan, (C5H7O2)2—Cu—C13H18Cl2N2O2], in the data set on AKATON tumor (setting [2]), the “Percent inhibition of tumor volume” value is given as 40%, the “Percent inhibition of tumor weight” value was found to be 40%, the Average tumor mass is 2.67 g and the Average tumor volume is on record as 4.76 cm^3. In addition, in the data set with AKATON tumor (setting [3]), the “Percent inhibition of tumor volume” value came out at 82%, the “Percent inhibition of tumor weight” value is reported as 80%, the Average tumor mass was 0.91 g and the Average tumor volume amounted to 1.38 cm^3. Further, in the data set on leukemia P-388 (10 mg/kg, days 1, 5, 9), the ILS % was 419% and the “Number of surviving animals/number of animals in group” value is recorded as 5/6. Moreover, in the data set on leukemia P-388 (10 mg/kg, days 1, 7), the ILS % is given as 465% and the “Number of surviving animals/number of animals in group” value is listed as 4/6. In addition, in the data set with leukemia P-388 (15 mg/kg, days 1, 7), the ILS % amounted to 447% and the “Number of surviving animals/number of animals in group” value is 5/6. Besides, the Change in weight with leukemia L-1210 (5 mg/kg intraabdominal days 1-7) was -1.5 g. Moreover, the “% of surviving animals” value in the data set on leukemia L-1210 (5 mg/kg intraabdominal days 1-7, 60 days observation) was determined as 100%. Also, in the data set on leukemia L-1210 (5 mg/kg intraabdominal days 1-7, control 8.5), the “Lifespan of the animals in the experiment” value was >60 days. For the same molecule, the “sensitivity of the resistant tumors reduced” value in data set [1] was 4-5 fold.

(Values after US20060052357A1, “Organometallic anti-tumour agent” (priority 2001, published 2006).)
